According to ChEMBL document CHEMBL4041521, “3-Aroylindoles display antitumor activity in vitro and in vivo: Effects of N1-substituents on biological activity” (Eur J Med Chem, 2017):
Activity calls are given as the source filed them. The rule behind the calls is not given here.

Legend:
Histone deacetylase 8 = biological target: T1, Histone deacetylase 8 (Homo sapiens, UniProt Q9BY41); experiment: Inhibition of recombinant human HDAC8 using fluorogenic substrate by fluorescence assay
T1 sequence (Q9BY41 whole entry): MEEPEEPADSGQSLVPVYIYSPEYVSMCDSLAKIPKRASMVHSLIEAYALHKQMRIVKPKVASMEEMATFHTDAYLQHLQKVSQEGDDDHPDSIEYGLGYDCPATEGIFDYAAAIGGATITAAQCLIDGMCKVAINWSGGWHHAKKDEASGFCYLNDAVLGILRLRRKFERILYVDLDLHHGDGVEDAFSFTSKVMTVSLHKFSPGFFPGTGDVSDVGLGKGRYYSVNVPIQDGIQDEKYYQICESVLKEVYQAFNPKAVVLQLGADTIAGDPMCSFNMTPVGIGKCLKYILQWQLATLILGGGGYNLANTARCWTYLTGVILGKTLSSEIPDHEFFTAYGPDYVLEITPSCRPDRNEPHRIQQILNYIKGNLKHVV

Histone deacetylase 3 = Histone deacetylase 3 (Homo sapiens, UniProt O15379); experiment: Inhibition of recombinant human HDAC3 using fluorogenic substrate by fluorescence assay
Histone deacetylase 5 = Histone deacetylase 5 (Homo sapiens, UniProt Q9UQL6); experiment: Inhibition of recombinant human HDAC5 using fluorogenic substrate by fluorescence assay
[1] = Inhibition of HDAC activity in human HeLa cell nuclear extract using fluorometric substrate measured after 30 mins by fluorescence assay; type: cell-based
Histone deacetylase 2 = Histone deacetylase 2 (Homo sapiens, UniProt Q92769); experiment: Inhibition of recombinant human HDAC2 using fluorogenic substrate by fluorescence assay
Homo sapiens = species on record: Homo sapiens; experiment: Inhibition of tubulin polymerization in human PC3 cells assessed as […] in MPM2 expression at 0.01 to 10 uM by Western blot analysis; type: cell-based
[2] = biological target: T2, Polyamine deacetylase HDAC10 (Homo sapiens, UniProt Q969S8); experiment: Inhibition of recombinant human HDAC10 using fluorogenic substrate by fluorescence assay
T2 sequence (Q969S8 whole entry): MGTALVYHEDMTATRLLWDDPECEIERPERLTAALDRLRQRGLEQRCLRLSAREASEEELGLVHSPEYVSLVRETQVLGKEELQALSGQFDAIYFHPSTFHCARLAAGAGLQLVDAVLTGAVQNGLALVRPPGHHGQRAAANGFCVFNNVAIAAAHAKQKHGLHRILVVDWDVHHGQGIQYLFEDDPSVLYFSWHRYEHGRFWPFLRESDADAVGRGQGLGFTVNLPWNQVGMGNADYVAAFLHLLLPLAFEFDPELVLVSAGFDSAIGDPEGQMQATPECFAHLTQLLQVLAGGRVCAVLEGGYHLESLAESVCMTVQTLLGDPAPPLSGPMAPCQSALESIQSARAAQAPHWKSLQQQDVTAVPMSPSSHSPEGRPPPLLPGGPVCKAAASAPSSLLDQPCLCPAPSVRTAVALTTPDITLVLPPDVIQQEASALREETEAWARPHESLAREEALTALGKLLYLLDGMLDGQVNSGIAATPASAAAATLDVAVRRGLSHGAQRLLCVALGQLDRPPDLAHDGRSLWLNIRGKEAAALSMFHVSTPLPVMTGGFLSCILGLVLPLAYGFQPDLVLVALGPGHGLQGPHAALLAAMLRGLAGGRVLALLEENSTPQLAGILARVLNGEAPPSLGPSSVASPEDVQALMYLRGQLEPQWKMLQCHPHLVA

Histone deacetylase 11 = biological target: T3, Histone deacetylase 11 (Homo sapiens, UniProt Q96DB2); experiment: Inhibition of recombinant human HDAC11 using fluorogenic substrate by fluorescence assay
T3 sequence (Q96DB2 whole entry): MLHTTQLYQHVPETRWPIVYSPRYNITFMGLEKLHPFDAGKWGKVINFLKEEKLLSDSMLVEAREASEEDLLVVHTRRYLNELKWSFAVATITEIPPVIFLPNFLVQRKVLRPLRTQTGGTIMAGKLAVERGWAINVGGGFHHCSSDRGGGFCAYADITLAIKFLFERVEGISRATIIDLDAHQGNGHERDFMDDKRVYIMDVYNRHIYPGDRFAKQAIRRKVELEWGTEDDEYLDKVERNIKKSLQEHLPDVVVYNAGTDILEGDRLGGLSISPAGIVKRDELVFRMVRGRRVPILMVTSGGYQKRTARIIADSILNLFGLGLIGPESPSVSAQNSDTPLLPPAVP

HCT-116 = experiment: Antiproliferative activity against human HCT116 cells measured after 48 hrs by sulforhodamine-B assay; type: functional, cell-based; details: HCT-116, 48 h
Histone deacetylase 9 = Histone deacetylase 9 (Homo sapiens, UniProt Q9UKV0); experiment: Inhibition of recombinant human HDAC9 using fluorogenic substrate by fluorescence assay
PC-3 = experiment: Antiproliferative activity against human PC3 cells measured after 48 hrs by sulforhodamine-B assay; type: functional, cell-based; details: PC-3, 48 h
Sus scrofa = species on record: Sus scrofa; experiment: Inhibition of purified porcine tubulin polymerization at 1 to 10 uM measured every 1 min for 30 mins
A549 = experiment: Antiproliferative activity against human A549 cells measured after 48 hrs by sulforhodamine-B assay; type: functional, cell-based; details: A549, 48 h
Histone deacetylase 4 = Histone deacetylase 4 (Homo sapiens, UniProt P56524); experiment: Inhibition of recombinant human HDAC4 using fluorogenic substrate by fluorescence assay
Chain of Histone deacetylase 4 (P56524 whole entry): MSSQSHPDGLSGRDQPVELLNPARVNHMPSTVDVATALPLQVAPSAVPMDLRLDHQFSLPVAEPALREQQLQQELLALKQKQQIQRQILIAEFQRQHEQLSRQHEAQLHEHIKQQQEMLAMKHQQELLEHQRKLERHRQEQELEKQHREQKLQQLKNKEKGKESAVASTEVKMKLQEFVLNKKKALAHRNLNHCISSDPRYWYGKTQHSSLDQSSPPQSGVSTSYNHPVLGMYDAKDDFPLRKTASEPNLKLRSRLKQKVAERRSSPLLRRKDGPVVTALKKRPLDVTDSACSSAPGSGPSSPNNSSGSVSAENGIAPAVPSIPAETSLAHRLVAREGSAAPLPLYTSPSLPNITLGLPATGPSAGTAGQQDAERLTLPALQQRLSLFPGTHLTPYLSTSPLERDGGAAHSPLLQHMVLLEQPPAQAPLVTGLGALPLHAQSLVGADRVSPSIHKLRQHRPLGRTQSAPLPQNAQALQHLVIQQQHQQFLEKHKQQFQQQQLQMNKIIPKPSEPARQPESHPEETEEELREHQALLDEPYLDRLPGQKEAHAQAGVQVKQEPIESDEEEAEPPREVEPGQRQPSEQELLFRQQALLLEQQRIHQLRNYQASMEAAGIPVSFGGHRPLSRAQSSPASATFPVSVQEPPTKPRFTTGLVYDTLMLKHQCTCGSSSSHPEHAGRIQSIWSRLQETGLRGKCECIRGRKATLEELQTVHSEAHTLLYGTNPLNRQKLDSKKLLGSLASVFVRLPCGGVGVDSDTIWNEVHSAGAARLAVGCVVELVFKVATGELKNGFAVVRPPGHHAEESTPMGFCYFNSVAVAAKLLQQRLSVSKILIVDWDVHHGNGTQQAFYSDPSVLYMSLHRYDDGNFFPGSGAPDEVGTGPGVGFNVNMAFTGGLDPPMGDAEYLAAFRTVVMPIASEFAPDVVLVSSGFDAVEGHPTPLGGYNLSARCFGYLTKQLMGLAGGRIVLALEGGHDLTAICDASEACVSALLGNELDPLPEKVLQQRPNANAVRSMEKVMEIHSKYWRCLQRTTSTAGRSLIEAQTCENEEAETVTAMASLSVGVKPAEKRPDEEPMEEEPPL

Chain of Histone deacetylase 9 (Q9UKV0 whole entry): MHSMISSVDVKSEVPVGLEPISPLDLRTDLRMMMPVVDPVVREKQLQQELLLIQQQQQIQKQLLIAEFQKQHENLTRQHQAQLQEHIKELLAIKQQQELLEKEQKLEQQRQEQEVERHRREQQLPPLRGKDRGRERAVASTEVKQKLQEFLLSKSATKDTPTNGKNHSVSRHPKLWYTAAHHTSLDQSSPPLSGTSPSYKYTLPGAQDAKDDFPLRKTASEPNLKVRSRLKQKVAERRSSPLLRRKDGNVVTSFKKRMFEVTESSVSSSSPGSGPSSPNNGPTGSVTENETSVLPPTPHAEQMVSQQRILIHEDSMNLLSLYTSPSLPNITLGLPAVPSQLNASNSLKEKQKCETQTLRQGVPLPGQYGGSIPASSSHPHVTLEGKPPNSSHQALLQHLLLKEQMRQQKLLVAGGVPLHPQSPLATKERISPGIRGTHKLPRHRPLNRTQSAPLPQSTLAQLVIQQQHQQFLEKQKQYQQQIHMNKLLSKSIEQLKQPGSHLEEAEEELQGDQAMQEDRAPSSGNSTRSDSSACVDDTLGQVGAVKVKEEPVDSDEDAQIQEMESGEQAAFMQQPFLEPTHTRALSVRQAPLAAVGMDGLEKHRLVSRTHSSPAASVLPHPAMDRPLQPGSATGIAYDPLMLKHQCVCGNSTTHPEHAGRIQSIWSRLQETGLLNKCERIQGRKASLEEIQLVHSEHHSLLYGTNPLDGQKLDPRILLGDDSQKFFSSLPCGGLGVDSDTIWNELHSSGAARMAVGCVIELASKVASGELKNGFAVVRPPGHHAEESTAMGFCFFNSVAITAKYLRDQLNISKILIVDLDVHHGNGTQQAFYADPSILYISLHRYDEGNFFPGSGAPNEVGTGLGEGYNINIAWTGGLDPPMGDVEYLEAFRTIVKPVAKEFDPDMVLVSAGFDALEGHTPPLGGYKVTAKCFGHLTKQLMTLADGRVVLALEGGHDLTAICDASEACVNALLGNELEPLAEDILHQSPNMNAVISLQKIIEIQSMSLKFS
Chain of Histone deacetylase 3 (O15379 whole entry): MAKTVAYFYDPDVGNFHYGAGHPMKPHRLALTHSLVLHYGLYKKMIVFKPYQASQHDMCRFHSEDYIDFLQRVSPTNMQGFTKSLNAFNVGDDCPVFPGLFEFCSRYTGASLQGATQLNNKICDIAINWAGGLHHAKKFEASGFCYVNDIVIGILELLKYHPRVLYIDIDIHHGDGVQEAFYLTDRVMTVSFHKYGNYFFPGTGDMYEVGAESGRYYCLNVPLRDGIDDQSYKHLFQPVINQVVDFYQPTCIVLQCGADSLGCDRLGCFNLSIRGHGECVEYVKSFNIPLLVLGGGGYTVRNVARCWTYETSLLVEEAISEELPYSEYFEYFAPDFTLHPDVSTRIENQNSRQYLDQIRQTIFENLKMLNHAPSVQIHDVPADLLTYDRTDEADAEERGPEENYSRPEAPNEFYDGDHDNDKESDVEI
Chain of Histone deacetylase 2 (Q92769 whole entry): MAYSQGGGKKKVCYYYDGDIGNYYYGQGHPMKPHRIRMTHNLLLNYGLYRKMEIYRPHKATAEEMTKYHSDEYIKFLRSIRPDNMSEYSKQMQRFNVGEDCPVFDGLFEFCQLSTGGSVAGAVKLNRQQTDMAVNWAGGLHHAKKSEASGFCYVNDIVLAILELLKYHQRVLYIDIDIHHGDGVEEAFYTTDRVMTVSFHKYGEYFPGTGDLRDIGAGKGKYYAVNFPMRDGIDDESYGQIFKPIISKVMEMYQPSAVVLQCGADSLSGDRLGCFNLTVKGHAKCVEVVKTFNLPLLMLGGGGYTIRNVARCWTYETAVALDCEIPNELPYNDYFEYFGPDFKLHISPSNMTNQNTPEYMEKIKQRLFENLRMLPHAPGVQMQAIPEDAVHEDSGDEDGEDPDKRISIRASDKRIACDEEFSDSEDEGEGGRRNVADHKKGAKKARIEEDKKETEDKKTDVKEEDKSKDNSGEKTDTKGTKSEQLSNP
Chain of Histone deacetylase 5 (Q9UQL6 whole entry): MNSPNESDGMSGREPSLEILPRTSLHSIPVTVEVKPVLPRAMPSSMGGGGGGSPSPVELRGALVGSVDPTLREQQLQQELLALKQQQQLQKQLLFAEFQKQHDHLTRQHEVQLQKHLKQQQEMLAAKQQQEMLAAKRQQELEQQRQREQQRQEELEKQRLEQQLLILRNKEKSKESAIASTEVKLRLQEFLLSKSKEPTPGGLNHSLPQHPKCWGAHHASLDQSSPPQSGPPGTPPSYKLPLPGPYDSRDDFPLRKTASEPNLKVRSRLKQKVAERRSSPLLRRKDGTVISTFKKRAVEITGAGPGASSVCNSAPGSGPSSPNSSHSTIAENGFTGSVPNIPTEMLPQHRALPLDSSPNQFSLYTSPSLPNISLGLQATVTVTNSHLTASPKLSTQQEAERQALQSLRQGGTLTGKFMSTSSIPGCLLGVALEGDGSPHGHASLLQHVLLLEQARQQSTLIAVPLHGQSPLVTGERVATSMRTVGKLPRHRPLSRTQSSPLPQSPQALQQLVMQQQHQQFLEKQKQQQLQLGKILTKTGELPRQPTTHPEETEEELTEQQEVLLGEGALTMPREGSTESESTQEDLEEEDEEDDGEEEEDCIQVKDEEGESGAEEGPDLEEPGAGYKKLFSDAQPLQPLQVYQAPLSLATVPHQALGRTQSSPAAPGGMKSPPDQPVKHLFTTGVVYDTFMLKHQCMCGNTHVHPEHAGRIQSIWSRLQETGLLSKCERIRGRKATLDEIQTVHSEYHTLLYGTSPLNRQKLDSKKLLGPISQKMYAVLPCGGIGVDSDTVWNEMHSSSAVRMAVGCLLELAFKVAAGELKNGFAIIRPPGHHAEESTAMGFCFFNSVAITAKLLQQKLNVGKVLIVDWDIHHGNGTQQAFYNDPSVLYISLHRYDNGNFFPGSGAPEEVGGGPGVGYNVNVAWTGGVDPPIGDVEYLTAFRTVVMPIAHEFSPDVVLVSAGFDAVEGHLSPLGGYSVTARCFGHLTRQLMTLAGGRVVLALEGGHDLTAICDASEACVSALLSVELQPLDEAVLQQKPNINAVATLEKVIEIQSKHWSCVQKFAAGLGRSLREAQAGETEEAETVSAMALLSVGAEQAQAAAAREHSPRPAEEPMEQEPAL

Q: What does the source list for `COc1ccc2c(C(=O)c3cc(OC)c(OC)c(OC)c3)cn(S(=O)(=O)c3cccc(/C=C/C(=O)NO)c3)c2c1`?
A: IC50 (Histone deacetylase 8): 16200 nM; IC50 (Histone deacetylase 3): Not Active; IC50 (Histone deacetylase 5): 356000 nM; IC50 [1]: 135 nM; IC50 (Histone deacetylase 2): 3220 nM; inhibition (Homo sapiens): Active; IC50 [2]: Not Active; IC50 (Histone deacetylase 11): 8870 nM; IC50 (HCT-116): 43.9 nM; IC50 (Histone deacetylase 9): Not Active; IC50 (PC-3): 33.1 nM; inhibition (Sus scrofa): Active; IC50 (A549): 72.5 nM; IC50 (Histone deacetylase 4): Not Active

Q: With `COc1ccc2c(C(=O)c3cc(OC)c(OC)c(OC)c3)cn(Cc3ccc(C(=O)NO)cc3)c2c1` as the compound, how does the IC50 (Histone deacetylase 8) read?
A: Its IC50 is 390 nM.

Q: And the IC50 (Histone deacetylase 3; read-out: IC50)?
A: Its IC50 is 6530 nM.

Q: And the IC50 (Histone deacetylase 5)?
A: Its IC50 is 1030 nM.

Q: And the IC50 [1]?
A: The IC50 was 611 nM.

Q: And the IC50 (Histone deacetylase 2)?
A: Its IC50 is 1410 nM.

Q: What about the inhibition (Homo sapiens) of the same compound?
A: The inhibition was “Active”.

Q: What about the IC50 ([2]; read-out: IC50) of the same compound?
A: Its IC50 is 8230 nM.

Q: And the IC50 (Histone deacetylase 11)?
A: Its IC50 is 651 nM.

Q: What about the IC50 (HCT-116) of the same compound?
A: The IC50 was 485 nM.

Q: What about the IC50 (Histone deacetylase 9; read-out: IC50) of the same compound?
A: The IC50 was 1680 nM.

Q: And the IC50 (PC-3)?
A: Its IC50 is 179 nM.

Q: What about the inhibition (Sus scrofa) of the same compound?
A: The inhibition was “Active”.

Q: What about the IC50 (A549) of the same compound?
A: The IC50 was 206 nM.

Q: And the IC50 (Histone deacetylase 4; read-out: IC50)?
A: Its IC50 is 1980 nM.
